Drawing on PubChem BioAssay AID248 (DTP/NCI, 2004), this text covers T/C for 18 molecules.

Each structure is given as a SMILES string. “And” between values parts separate entries of the source, which are not always exact repeats. Equal values may be shown once. Inconclusive results and toxic doses are left out.

The subject of the experiment is L1210 leukemia ip in BDF1 mice, survival T/C. As to the kind of experiment: NCI In Vivo Anticancer Drug Screen. Data for tumor model L1210 Leukemia (intraperitoneal) in B6D2F1 (BDF1) mice. As to conditions: endpoint: mean survival time, higher = longer survival. The method, boiled down: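 Transplanted-tumor mice were given test agent; controls received vehicle only. Survival readings from the two groups were divided (treated over control).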

The mark [1] stands for this setting: dose: 100.0 mg/kg/injection, schedule: Q01DX009 (ip), vehicle: saline.
Setting [2] is: dose: 200.0 mg/kg/injection, schedule: Q01DX009 (ip), vehicle: saline.
[3] abbreviates: dose: 100.0 mg/kg/injection, schedule: Q01DX001 (ip), vehicle: carboxymethylcellulose (CMC).
[4] abbreviates: dose: 200.0 mg/kg/injection, schedule: Q01DX001 (ip), vehicle: carboxymethylcellulose (CMC).
[5] abbreviates: dose: 400.0 mg/kg/injection, schedule: Q01DX001 (ip), vehicle: carboxymethylcellulose (CMC).
Where [6] appears, read: dose: 100.0 mg/kg/injection, schedule: Q01DX009 (ip), vehicle: Klucel (hydroxypropylcellulose) (HPC).
The mark [7] stands for this setting: dose: 200.0 mg/kg/injection, schedule: Q01DX009 (ip), vehicle: Klucel (hydroxypropylcellulose) (HPC).
The mark [8] stands for this setting: dose: 400.0 mg/kg/injection, schedule: Q01DX009 (ip), vehicle: Klucel (hydroxypropylcellulose) (HPC).
Setting [9] is: dose: 100.0 mg/kg/injection, schedule: Q04DX003 (ip), vehicle: Klucel (hydroxypropylcellulose) (HPC).
The mark [10] stands for this setting: dose: 200.0 mg/kg/injection, schedule: Q04DX003 (ip), vehicle: Klucel (hydroxypropylcellulose) (HPC).
The mark [11] stands for this setting: dose: 400.0 mg/kg/injection, schedule: Q04DX003 (ip), vehicle: Klucel (hydroxypropylcellulose) (HPC).
[12] abbreviates: dose: 100.0 mg/kg/injection, schedule: Q01DX001 (ip), vehicle: saline.
Where [13] appears, read: dose: 200.0 mg/kg/injection, schedule: Q01DX001 (ip), vehicle: saline.
Where [14] appears, read: dose: 400.0 mg/kg/injection, schedule: Q01DX001 (ip), vehicle: saline.
Where [15] appears, read: dose: 400.0 mg/kg/injection, schedule: Q01DX009 (ip), vehicle: saline.

As for `CC#CCCC(=O)OCCC`, the T/C runs as follows: (dose: 100.0 mg/kg/injection, schedule: Q04DX002 (ip), vehicle: saline with Tween-80) 121 % of control; (dose: 200.0 mg/kg/injection, schedule: Q04DX002 (ip), vehicle: saline with Tween-80) 93 % of control; (dose: 400.0 mg/kg/injection, schedule: Q04DX002 (ip), vehicle: saline with Tween-80) 108 % of control.

Regarding `O=C(O)Cn1nnc2ccccc21`, the T/C runs as follows: (dose: 50.0 mg/kg/injection, schedule: Q01DX009 (ip), vehicle: saline) 94 % of control; under setting [1], 249 % of control; under setting [2], 94 % of control.

Take `CCOC(=O)Nc1cc(NCC(O)CN(C)c2ccccc2)c([N+](=O)[O-])c(N)n1` (stereo not given): the T/C was 95 % of control under setting [3], 95 % of control under setting [4] and 92 % of control under setting [5].

Turning to `CCN=C(N)c1ccc(NC(=O)Nc2ccc(NC(=O)Nc3ccc(C(N)=NCC)cc3)cc2)cc1`, the T/C was 98 % of control (dose: 0.31 mg/kg/injection, schedule: Q01DX Z (ip), vehicle: carboxymethylcellulose (CMC)); 97 % of control (dose: 0.62 mg/kg/injection, schedule: Q01DX Z (ip), vehicle: carboxymethylcellulose (CMC)); 90 % of control (dose: 1.25 mg/kg/injection, schedule: Q01DX Z (ip), vehicle: carboxymethylcellulose (CMC)); 107 % of control (dose: 2.5 mg/kg/injection, schedule: Q01DX Z (ip), vehicle: carboxymethylcellulose (CMC)).

In the case of `Cn1nc(C(N)=O)c2c(N)ncnc21`, the T/C is 96 % of control (dose: 7.5 mg/kg/injection, schedule: Q04DX002 (ip), vehicle: Klucel (hydroxypropylcellulose) (HPC)); 98 % of control (dose: 15.0 mg/kg/injection, schedule: Q01DX001 (ip), vehicle: carboxymethylcellulose (CMC)); 92 % of control (dose: 15.0 mg/kg/injection, schedule: Q04DX002 (ip), vehicle: Klucel (hydroxypropylcellulose) (HPC)); 102 % of control (dose: 30.0 mg/kg/injection, schedule: Q01DX001 (ip), vehicle: carboxymethylcellulose (CMC)); 96 % of control (dose: 30.0 mg/kg/injection, schedule: Q04DX002 (ip), vehicle: Klucel (hydroxypropylcellulose) (HPC)).

For the molecule `CC1(C(Cl)(Cl)Cl)C=CC(=O)C(Cl)=C1` (stereo not given), the T/C by setting is: under setting [6], 100 % of control; under setting [7], 103 % of control; under setting [8], 97 % of control.

For `CC1C(=O)/C(=C/N(C)c2ccccc2)CC1C(=O)O` (stereo not given), the T/C by setting is: (dose: 100.0 mg/kg/injection, schedule: Q01DX001 (ip), vehicle: Klucel (hydroxypropylcellulose) (HPC)) 93 % of control; under setting [9], 100 % of control; (dose: 200.0 mg/kg/injection, schedule: Q01DX001 (ip), vehicle: Klucel (hydroxypropylcellulose) (HPC)) 93 % of control; under setting [7], 97 % of control; under setting [10], 98 % of control; (dose: 400.0 mg/kg/injection, schedule: Q01DX001 (ip), vehicle: Klucel (hydroxypropylcellulose) (HPC)) 87 % of control. The T/C under setting [8] was 97 % of control and the T/C under setting [11] is 98 % of control.

Regarding `Cc1cccc(NC(=O)C(C)(C)C)c1C`, the T/C reads like this: under setting [6], 106 % of control; under setting [7], 95 % of control; under setting [8], 101 % of control.

For `CSc1ccc2c(c1)-c1ccccc1C2=O`, the T/C reads like this: (dose: 100.0 mg/kg/injection, schedule: Q04DX003 (ip), vehicle: acetone) 94 % of control; (dose: 200.0 mg/kg/injection, schedule: Q04DX003 (ip), vehicle: acetone) 89 % of control; (dose: 400.0 mg/kg/injection, schedule: Q04DX003 (ip), vehicle: acetone) 93 % of control.

Regarding `CN=C(N)N(C)/N=C/c1ccccc1`, the T/C (dose: 87.5 mg/kg/injection, schedule: Q04DX003 (ip), vehicle: Klucel (hydroxypropylcellulose) (HPC)) is 105 % of control.

Regarding `CCOC(=O)CNC(=O)C(CSSCC(NC(=O)OCc1ccccc1)C(=O)NCC(=O)OCC)NC(=O)OCc1ccccc1` (stereo not given), the T/C was 95 % of control (dose: 25.0 mg/kg/injection, schedule: Q04DX003 (ip), vehicle: Klucel (hydroxypropylcellulose) (HPC)); 100 % of control (dose: 50.0 mg/kg/injection, schedule: Q01DX009 (ip), vehicle: Klucel (hydroxypropylcellulose) (HPC)); 104 % of control (dose: 50.0 mg/kg/injection, schedule: Q04DX003 (ip), vehicle: Klucel (hydroxypropylcellulose) (HPC)); 103 % of control under setting [6]; 104 % of control and 90 % of control under setting [9]; 92 % of control under setting [7].

On to `CCOC(=O)C(CNC(N)=O)(c1ccccc1)c1ccccc1`, for which the T/C reads like this: (dose: 50.0 mg/kg/injection, schedule: Q01DX001 (ip), vehicle: carboxymethylcellulose (CMC)) 93 % of control; under setting [3], 102 % of control; under setting [4], 87 % of control; under setting [5], 98 % of control.

In the case of `NC(=S)N/N=C1/C(=O)c2cccc3cccc1c23`, the T/C (dose: 75.0 mg/kg/injection, schedule: Q01DX001 (ip), vehicle: other) was 96 % of control.

In the case of `[Tl][CH]1C=CC=C1`, the T/C (dose: 100.0 mg/kg/injection, schedule: Q01DX001 (ip), vehicle: acetone) is 93 % of control.

On to `Nc1ncnn1C(=O)OCc1ccccc1`, for which the T/C reads like this: under setting [12], 98 % of control; under setting [1], 89 % of control; under setting [13], 112 % of control; under setting [2], 96 % of control; under setting [14], 93 % of control; under setting [15], 100 % of control.

As for `CC1=CC(C)(C)Nc2ccccc21`, the T/C under setting [1] was 118 % of control; the T/C (dose: 100.0 mg/kg/injection, schedule: Q04DX003 (ip), vehicle: saline) is 106 % of control; the T/C under setting [2] is 103 % of control; the T/C (dose: 200.0 mg/kg/injection, schedule: Q04DX003 (ip), vehicle: saline) was 101 % of control; the T/C under setting [15] is 116 % of control; the T/C (dose: 400.0 mg/kg/injection, schedule: Q04DX003 (ip), vehicle: saline) is 91 % of control.

Turning to `O=C1c2cc([N+](=O)[O-])ccc2NC1(c1c[nH]c2ccccc12)c1c[nH]c2ccc(Br)cc12` (stereo not given), the T/C was 96 % of control (dose: 50.0 mg/kg/injection, schedule: Q01DX001 (ip), vehicle: saline); 96 % of control under setting [12]; 96 % of control under setting [13]; 93 % of control under setting [14].

As for `CCCCCCCC(=O)CC(C)C`, the T/C is 109 % of control under setting [6]; 93 % of control under setting [9]; 98 % of control under setting [7]; 96 % of control under setting [10]; 107 % of control under setting [8]; 96 % of control under setting [11].
